Assay results published in ChEMBL document CHEMBL5257101, “Synthesis and evaluation of sulfonamide derivatives targeting EGFR790M/L858R mutations and ALK rearrangement as anticancer agents” (Bioorg Med Chem, 2023).
Activity calls are given as the source filed them. The calls are words filed in the database; no cut-off is given here.

Experiments:
NCI-H1975 [1] = assay: Antiproliferative activity against human NCI-H1975 cells expressing EGFR T790M/ L858R double mutant assessed as inhibition of cell growth measured after 48 to 72 hrs by MTT assay; type: functional, cell-based
NCI-H2228 [2] = assay: Antiproliferative activity against human NCI-H2228 cells expressing ALK assessed as inhibition of cell growth measured after 48 to 72 hrs by MTT assay; type: functional, cell-based
[3] = Cytotoxicity against human HK-2 cells assessed as inhibition of cell growth measured after 48 to 72 hrs by MTT assay; type: toxicity, cell-based
[4] = Cytotoxicity against human EA.hy 926 cells assessed as inhibition of cell growth measured after 48 to 72 hrs by MTT assay; type: toxicity, cell-based
[5] = Selectivity ratio, ratio of IC50 for human NCI-H2228 cells expressing ALK to IC50 for human HK-2 cells by MTT assay
[6] = Selectivity ratio, ratio of IC50 for human NCI-H2228 cells expressing ALK to IC50 for human EA.hy 926 cells by MTT assay
PC-9 = assay: Antiproliferative activity against human PC-9 cells expressing EGFR Del19 mutant assessed as inhibition of cell growth measured after 48 to 72 hrs by MTT assay; type: functional, cell-based
A549 = assay: Antiproliferative activity against human A549 cells expressing wild type EGFR assessed as inhibition of cell growth measured after 48 to 72 hrs by MTT assay; type: functional, cell-based
HK-2 = assay: Effect on cell morphology in human HK-2 cells at 1 uM incubated for 24 hrs by inverted microscopic analysis; type: functional, cell-based
NCI-H2228 [7] = assay: Inhibition of human NCI-H2228 cell cloning incubated for 24 hrs by inverted microscopic analysis; type: functional, cell-based; settings: dose 1-20 nM
[8] = Selectivity ratio, ratio of IC50 for human NCI-H1975 cells expressing EGFR T790M/ L858R double mutant to IC50 for human HK-2 cells by MTT assay
[9] = target: ALK tyrosine kinase receptor (Homo sapiens, UniProt Q9UM73); assay: Inhibition of ALK (unknown origin) pre-incubated for 10 mins followed by substrate addition measured after 60 mins in presence of ATP by mobility shifting assay
NCI-H1975 [10] = assay: Effect on cell morphology in human NCI-H1975 cells assessed as appearance of blurred boundary region at 1 to 1000 nM incubated for 24 hrs; type: functional, cell-based; settings: dose 1-1000 nM
NCI-H2228 [11] = assay: Effect on cell morphology in human NCI-H2228 cells assessed as loss of cell morphology at 1 to 1000 nM incubated for 24 hrs; type: functional, cell-based; settings: dose 1-1000 nM
NCI-H2228 [12] = assay: Induction of apoptosis in human NCI-H2228 cells expressing ALK assessed as increase in DNA breakage measured after 24 hrs by Hoechst 33342 staining based fluorescence microscopic analysis; type: functional, cell-based; settings: dose 5-25 nM
[13] = Selectivity ratio, ratio of IC50 for human NCI-H1975 cells expressing EGFR T790M/ L858R double mutant to IC50 for human EA.hy 926 cells by MTT assay
[14] = target: Epidermal growth factor receptor (Homo sapiens, UniProt P00533); assay: Inhibition of wild type EGFR (unknown origin) pre-incubated for 10 mins followed by substrate addition measured after 60 mins in presence of ATP by mobility shifting assay
NCI-H2228 [15] = assay: Effect on cell morphology in human NCI-H2228 cells assessed as loss of large number of floating cells at 1 to 1000 nM incubated for 24 hrs; type: functional, cell-based; settings: dose 1-1000 nM
NCI-H1975 [16] = assay: Antimigratory activity against human NCI-H1975 cells assessed as reduction in cell migration incubated for 24 hrs by crystal violet staining microscopy based transwell migration assay; type: functional; settings: dose 10-20 nM
Homo sapiens [17] = organism: Homo sapiens; assay: Selectivity ratio, ratio of IC50 for wild type EGFR (unknown origin) to IC50 for EGFR L858R/T790M double mutant (unknown origin) by mobility shifting assay
[18] = target: Epidermal growth factor receptor (Homo sapiens, UniProt P00533, L858R/T790M); assay: Inhibition of EGFR L858R/T790M double mutant (unknown origin) pre-incubated for 10 mins followed by substrate addition measured after 60 mins in presence of ATP by mobility shifting assay
NCI-H1975 [19] = assay: Antimigratory activity against human NCI-H1975 cells assessed as decrease in healing rate upto 10 nM measured upto 36 hrs by scratch-wound healing assay; type: functional, cell-based
EA.hy 926 = assay: Effect on cell morphology in human EA.hy 926 cells at 1 uM incubated for 24 hrs by inverted microscopic analysis; type: functional, cell-based
NCI-H1975 [20] = assay: Induction of apoptosis in human NCI-H1975 cells expressing EGFR T790M/ L858R double mutant assessed as increase in DNA breakage measured after 24 hrs by Hoechst 33342 staining based fluorescence microscopic analysis; type: functional, cell-based; settings: dose 5-25 nM
NCI-H1975 [21] = assay: Effect on cell morphology in human NCI-H1975 cells assessed as disappearance of cell morphology at 1 to 1000 nM incubated for 24 hrs; type: functional, cell-based; settings: dose 1-1000 nM
Homo sapiens [22] = organism: Homo sapiens; assay: Selectivity ratio, ratio of IC50 for wild type EGFR (unknown origin) to IC50 for EGFR Del19 mutant (unknown origin) by mobility shifting assay
NCI-H1975 [23] = assay: Effect on cell morphology in human NCI-H1975 cells assessed as cell shrinkage at 1 to 1000 nM incubated for 24 hrs; type: functional, cell-based; settings: dose 1-1000 nM
[24] = Selectivity ratio, ratio of IC50 for human A549 cells expressing wild type EGFR to IC50 for human NCI-H1975 cells expressing EGFR T790M/ L858R double mutant by MTT assay
NCI-H2228 [25] = assay: Effect on cell morphology in human NCI-H2228 cells assessed as increase of cell shrinkage at 1 to 1000 nM incubated for 24 hrs; type: functional, cell-based; settings: dose 1-1000 nM
[26] = target: Epidermal growth factor receptor (Homo sapiens, UniProt P00533, EX19DEL); assay: Inhibition of EGFR Del19 mutant (unknown origin) pre-incubated for 10 mins followed by substrate addition measured after 60 mins in presence of ATP by mobility shifting assay
NCI-H2228 [27] = assay: Effect on cell morphology in human NCI-H2228 cells assessed as increase of cell fragments at 1 to 1000 nM incubated for 24 hrs; type: functional, cell-based; settings: dose 1-1000 nM
[28] = Selectivity ratio, ratio of IC50 for human A549 cells expressing wild type EGFR to IC50 for human PC-9 cells expressing EGFR Del19 mutant by MTT assay
NCI-H2228 [29] = assay: Effect on cell morphology in human NCI-H2228 cells assessed as increase of cell opacity at 1 to 1000 nM incubated for 24 hrs; type: functional, cell-based; settings: dose 1-1000 nM
NCI-H1975 [30] = assay: Inhibition of human NCI-H1975 cell cloning incubated for 24 hrs by inverted microscopic analysis; type: functional, cell-based; settings: dose 5-25 nM
NCI-H1975 [31] = assay: Effect on cell morphology in human NCI-H1975 cells assessed as cell aggregation at 1 to 1000 nM incubated for 24 hrs; type: functional, cell-based; settings: dose 1-1000 nM

Epidermal growth factor receptor (Homo sapiens, UniProt P00533, L858R/T790M), sequence (P00533 25-1210 T790M/L858R limits assumed): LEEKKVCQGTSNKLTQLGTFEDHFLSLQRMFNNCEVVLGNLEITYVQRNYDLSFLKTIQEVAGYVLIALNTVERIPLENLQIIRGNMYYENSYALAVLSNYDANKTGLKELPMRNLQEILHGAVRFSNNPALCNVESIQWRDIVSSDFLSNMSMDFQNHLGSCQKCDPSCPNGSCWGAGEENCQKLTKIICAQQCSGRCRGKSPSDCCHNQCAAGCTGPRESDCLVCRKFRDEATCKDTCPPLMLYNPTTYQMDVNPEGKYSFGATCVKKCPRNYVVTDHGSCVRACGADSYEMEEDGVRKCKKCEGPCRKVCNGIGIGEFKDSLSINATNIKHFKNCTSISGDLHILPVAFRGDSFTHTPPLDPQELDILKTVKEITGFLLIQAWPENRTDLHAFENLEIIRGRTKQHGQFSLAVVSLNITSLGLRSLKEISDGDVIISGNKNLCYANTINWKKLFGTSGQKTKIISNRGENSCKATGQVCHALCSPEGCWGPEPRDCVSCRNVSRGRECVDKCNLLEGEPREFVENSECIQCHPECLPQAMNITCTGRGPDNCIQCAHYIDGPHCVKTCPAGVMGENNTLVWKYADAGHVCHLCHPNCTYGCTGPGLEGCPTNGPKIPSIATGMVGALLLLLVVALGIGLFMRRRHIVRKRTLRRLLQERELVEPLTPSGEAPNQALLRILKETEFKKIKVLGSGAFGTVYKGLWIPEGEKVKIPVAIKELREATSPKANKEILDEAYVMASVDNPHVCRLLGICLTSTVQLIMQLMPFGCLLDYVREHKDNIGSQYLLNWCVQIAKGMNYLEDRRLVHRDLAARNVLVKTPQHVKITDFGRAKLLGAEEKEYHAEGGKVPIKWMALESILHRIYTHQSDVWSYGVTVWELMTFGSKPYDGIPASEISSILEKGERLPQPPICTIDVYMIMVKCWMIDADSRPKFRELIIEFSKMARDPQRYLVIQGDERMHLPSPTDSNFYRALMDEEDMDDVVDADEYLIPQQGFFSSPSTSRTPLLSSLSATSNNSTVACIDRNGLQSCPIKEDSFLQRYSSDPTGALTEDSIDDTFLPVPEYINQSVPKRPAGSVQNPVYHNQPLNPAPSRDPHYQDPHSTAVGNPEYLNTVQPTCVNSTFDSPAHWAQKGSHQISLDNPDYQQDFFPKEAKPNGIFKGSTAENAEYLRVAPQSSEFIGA
ALK tyrosine kinase receptor, sequence (Q9UM73 whole entry): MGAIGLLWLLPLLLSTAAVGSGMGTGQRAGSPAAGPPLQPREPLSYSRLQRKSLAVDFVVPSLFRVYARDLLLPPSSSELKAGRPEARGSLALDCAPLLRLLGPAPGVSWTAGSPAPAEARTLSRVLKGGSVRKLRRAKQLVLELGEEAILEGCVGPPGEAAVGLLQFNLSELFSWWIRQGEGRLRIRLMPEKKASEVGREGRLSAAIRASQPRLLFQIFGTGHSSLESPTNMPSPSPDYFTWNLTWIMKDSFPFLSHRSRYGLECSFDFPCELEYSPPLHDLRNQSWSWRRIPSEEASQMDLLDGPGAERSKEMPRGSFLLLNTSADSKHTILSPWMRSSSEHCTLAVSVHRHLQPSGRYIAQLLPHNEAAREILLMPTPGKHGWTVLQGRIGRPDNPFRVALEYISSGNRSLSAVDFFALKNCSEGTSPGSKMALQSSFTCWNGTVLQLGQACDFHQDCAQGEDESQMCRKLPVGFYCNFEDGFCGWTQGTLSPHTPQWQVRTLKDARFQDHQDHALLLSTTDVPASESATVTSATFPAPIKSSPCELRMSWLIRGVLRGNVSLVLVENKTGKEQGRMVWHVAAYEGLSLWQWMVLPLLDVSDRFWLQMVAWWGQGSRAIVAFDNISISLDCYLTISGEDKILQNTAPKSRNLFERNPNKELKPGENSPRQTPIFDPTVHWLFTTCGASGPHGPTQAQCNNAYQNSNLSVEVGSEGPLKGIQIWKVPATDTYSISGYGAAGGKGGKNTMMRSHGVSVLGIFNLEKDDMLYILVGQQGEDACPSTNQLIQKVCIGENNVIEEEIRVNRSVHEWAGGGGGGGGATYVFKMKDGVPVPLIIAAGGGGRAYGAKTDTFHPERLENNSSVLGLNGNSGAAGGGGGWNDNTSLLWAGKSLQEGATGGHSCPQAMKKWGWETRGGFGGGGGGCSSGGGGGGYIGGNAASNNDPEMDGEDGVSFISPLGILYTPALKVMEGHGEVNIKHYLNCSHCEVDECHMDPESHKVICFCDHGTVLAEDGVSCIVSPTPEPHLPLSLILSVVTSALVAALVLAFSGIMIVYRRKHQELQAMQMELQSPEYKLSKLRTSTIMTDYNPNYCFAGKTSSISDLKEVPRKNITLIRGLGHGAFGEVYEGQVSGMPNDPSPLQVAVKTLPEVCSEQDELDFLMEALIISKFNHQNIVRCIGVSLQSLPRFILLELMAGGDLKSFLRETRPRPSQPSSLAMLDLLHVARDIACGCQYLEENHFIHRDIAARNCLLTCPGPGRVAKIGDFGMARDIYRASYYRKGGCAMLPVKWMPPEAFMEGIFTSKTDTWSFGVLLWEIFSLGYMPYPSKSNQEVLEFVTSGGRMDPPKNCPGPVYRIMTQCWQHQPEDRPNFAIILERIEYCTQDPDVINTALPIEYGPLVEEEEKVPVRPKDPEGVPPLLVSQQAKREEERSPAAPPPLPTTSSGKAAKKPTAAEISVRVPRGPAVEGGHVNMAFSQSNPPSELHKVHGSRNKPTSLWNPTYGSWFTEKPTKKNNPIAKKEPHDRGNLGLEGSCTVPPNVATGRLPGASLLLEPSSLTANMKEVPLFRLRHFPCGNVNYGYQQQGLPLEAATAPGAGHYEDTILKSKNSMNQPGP
Epidermal growth factor receptor (Homo sapiens, UniProt P00533, EX19DEL), sequence (P00533 whole entry, looked up, stated change not applied, the tested form may be a part): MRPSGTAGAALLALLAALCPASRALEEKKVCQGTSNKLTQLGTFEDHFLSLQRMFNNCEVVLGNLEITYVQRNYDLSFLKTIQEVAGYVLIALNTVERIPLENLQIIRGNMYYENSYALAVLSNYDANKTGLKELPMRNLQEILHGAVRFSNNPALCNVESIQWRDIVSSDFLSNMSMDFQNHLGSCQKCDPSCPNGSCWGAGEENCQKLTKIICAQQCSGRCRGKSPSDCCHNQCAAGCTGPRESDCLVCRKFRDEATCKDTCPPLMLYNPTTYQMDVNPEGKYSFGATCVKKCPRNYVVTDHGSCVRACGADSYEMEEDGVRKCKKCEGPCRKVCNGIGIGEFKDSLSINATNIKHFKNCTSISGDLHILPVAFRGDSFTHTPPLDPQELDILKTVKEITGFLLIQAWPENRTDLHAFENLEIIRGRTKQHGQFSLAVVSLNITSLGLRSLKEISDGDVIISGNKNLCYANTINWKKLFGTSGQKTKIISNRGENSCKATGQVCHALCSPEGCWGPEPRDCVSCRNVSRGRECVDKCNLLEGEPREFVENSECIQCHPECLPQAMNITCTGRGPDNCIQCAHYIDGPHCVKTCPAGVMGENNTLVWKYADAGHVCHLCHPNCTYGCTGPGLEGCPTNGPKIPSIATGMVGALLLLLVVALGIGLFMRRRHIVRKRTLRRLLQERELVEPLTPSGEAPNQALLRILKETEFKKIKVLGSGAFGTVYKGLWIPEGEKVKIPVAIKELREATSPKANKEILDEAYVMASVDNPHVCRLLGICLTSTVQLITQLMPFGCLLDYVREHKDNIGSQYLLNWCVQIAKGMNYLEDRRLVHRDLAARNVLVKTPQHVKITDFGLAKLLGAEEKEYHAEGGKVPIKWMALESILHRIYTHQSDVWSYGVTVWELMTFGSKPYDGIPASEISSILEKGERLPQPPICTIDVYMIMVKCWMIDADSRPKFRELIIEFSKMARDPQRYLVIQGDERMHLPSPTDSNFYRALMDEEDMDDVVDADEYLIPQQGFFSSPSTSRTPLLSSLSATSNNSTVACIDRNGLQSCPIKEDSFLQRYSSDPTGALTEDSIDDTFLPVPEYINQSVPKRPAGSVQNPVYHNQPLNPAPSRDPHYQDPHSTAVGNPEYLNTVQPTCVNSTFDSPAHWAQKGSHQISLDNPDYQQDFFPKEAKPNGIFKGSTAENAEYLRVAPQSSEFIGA

CNC(=O)c1ccccc1Nc1ncnc2cc(OCCOC)c(OCCOC)cc12
IC50 (NCI-H1975 [1]): > 10000 nM | IC50 (NCI-H2228 [2]): > 10000 nM

Cc1cc(Nc2ncc(Cl)c(Nc3ccccc3S(=O)(=O)C(C)C)n2)c(OC(C)C)cc1C1CCNCC1 [CERITINIB]
IC50 [3]: 2510 nM | IC50 [4]: 1010 nM | Ratio IC50 [5]: 77.69 | Ratio IC50 [6]: 228.36

C=CC(=O)Nc1cc(Nc2ncc(F)c(Nc3ccccc3S(=O)(=O)N3CCCC3)n2)c(OC)cc1N(C)CCN(C)C
IC50 (NCI-H1975 [1]): 81 nM | IC50 (NCI-H2228 [2]): 19 nM

CNS(=O)(=O)c1ccccc1Nc1ncnc2cc(OCCOC)c(OCCOC)cc12
IC50 (NCI-H1975 [1]): > 10000 nM | IC50 (NCI-H2228 [2]): > 10000 nM

COCCOc1cc2ncnc(N(C)c3ccccc3S(=O)(=O)N(C)C)c2cc1OCCOC
IC50 (NCI-H1975 [1]): > 10000 nM | IC50 (NCI-H2228 [2]): > 10000 nM

CCN(CC)S(=O)(=O)c1ccccc1Nc1ncnc2cc(OCCOC)c(OCCOC)cc12
IC50 (NCI-H1975 [1]): > 10000 nM | IC50 (NCI-H2228 [2]): > 10000 nM

Cc1cc(N(C)CCN(C)C)ccc1Nc1ncc(Cl)c(Nc2ccccc2S(=O)(=O)N(C)C)n1
IC50 (NCI-H1975 [1]): 170 nM | IC50 (NCI-H2228 [2]): 55.5 nM

C=CC(=O)Nc1cc(Nc2ncc(Cl)c(Nc3ccccc3S(=O)(=O)N3CCCC3)n2)c(OC)cc1N(C)CCN(C)C
IC50 (NCI-H1975 [1]): 13.6 nM | IC50 (NCI-H2228 [2]): 14 nM

C=CC(=O)Nc1cc(Nc2ncc(Cl)c(Nc3ccccc3S(=O)(=O)N(C)C)n2)c(OC)cc1N(C)CCN(C)C
IC50 (NCI-H1975 [1]): 12.5 nM | IC50 (NCI-H2228 [2]): 18 nM

COCCOc1cc2ncnc(Nc3ccccc3S(=O)(=O)N(C)C)c2cc1OCCOC
IC50 (NCI-H1975 [1]): > 10000 nM | IC50 (NCI-H2228 [2]): > 10000 nM

C=CC(=O)Nc1cc(Nc2nccc(-c3cn(C)c4ccccc34)n2)c(OC)cc1N(C)CCN(C)C [OSIMERTINIB]
IC50 (NCI-H1975 [1]): […] | IC50 (PC-9): […] | IC50 (A549): 1560 nM | IC50 [3]: 2400 nM | IC50 [4]: 1160 nM | Activity (HK-2): inactive

C=CC(=O)Nc1cc(Nc2ncc(Cl)c(Nc3ccccc3S(=O)(=O)NC3CC3)n2)c(OC)cc1N(C)CCN(C)C
IC50 (NCI-H1975 [1]): 21.5 nM | IC50 (PC-9): 20 nM | inhibition (NCI-H2228 [7]): Active | Ratio IC50 [8]: 157.28 | IC50 [9]: 3.31 nM | Activity (NCI-H1975 [10]): Active | Activity (NCI-H2228 [11]): Active | Activity (NCI-H2228 [12]): Dose-Dependent Effect | Ratio IC50 [13]: 74.83 | IC50 [14]: 23.2 nM | Activity (NCI-H2228 [15]): Active | Activity (NCI-H1975 [16]): Dose-Dependent Effect | IC50 (A549): 1540 nM | Ratio IC50 (Homo sapiens [17]): 21.5 | IC50 [18]: 1.08 nM | IC50 [3]: 3300 nM | Activity (NCI-H1975 [19]): Active | Activity (EA.hy 926): Active | Activity (NCI-H1975 [20]): Dose-Dependent Effect | Activity (NCI-H1975 [21]): Active | Ratio IC50 (Homo sapiens [22]): 32.3 | IC50 [4]: 1610 nM | Ratio IC50 [5]: 300.27 | Activity (NCI-H1975 [23]): Active | Ratio IC50 [24]: 77.25 | Activity (NCI-H2228 [25]): Active | IC50 [26]: 0.72 nM | Activity (NCI-H2228 [27]): Active | Activity (HK-2): Active | Ratio IC50 [6]: 146.27 | Ratio IC50 [28]: 71.86 | Activity (NCI-H2228 [29]): Active | inhibition (NCI-H1975 [30]): Active | IC50 (NCI-H2228 [2]): 11 nM | Activity (NCI-H1975 [31]): Active

COCCOc1cc2ncnc(Nc3ccccc3S(=O)(=O)NC3CC3)c2cc1OCCOC
IC50 (NCI-H1975 [1]): > 10000 nM | IC50 (NCI-H2228 [2]): > 10000 nM

C=CC(=O)Nc1cc(Nc2ncc(Cl)c(Nc3ccccc3S(=O)(=O)N(C)C3CC3)n2)c(OC)cc1N(C)CCN(C)C
IC50 (NCI-H1975 [1]): 100 nM | IC50 (NCI-H2228 [2]): 24.5 nM

C=CC(=O)Nc1cc(Nc2ncc(F)c(Nc3ccccc3S(=O)(=O)N(C)C)n2)c(OC)cc1N(C)CCN(C)C
IC50 (NCI-H1975 [1]): 67 nM | IC50 (NCI-H2228 [2]): 45 nM

COCCOc1cc2ncnc(Nc3ccccc3S(=O)(=O)N3CCCC3)c2cc1OCCOC
IC50 (NCI-H1975 [1]): > 10000 nM | IC50 (NCI-H2228 [2]): > 10000 nM

CN(C)CCN(C)c1ccc(Nc2ncc(Cl)c(Nc3ccccc3S(=O)(=O)N(C)C)n2)cc1
IC50 (NCI-H1975 [1]): 61 nM | IC50 (NCI-H2228 [2]): 108 nM

COc1cc(N(C)CCN(C)C)c(NC(=O)CCl)cc1Nc1ncc(Cl)c(Nc2ccccc2S(=O)(=O)N(C)C)n1
IC50 (NCI-H1975 [1]): 1030 nM | IC50 (NCI-H2228 [2]): 104 nM
